Data as given in paper PMC5006645 (EBioMedicine, 2016).
One block for each compound: values may come before it.

Tests used:
S273pPPARγ = assay: Inhibition of S273 phosphorylation of PPARγ; format: biochemical
[1] = Plasma levels at the end of experiments; format: in vivo, C57BL/6 mice; conditions: for concentration at 4 days: C57BL/6, mouse, plasma, 5 mg/kg/d
cortical bone = assay: Cortical tissue mineral density; format: in vivo, C57BL/6 mice; conditions: mouse model not stated; control 954.6 ± 17.6
PPARγ = format: cell-based; conditions: AD2 cells; 1 μM rosiglitazone or 5 μM SR10171 1 h, then TNF-α 50 ng/ml 1 h
marrow MSCs = assay: Marrow MSC cultures: adipocyte markers and CFU-OB osteoblast differentiation; format: cell-based; conditions: marrow MSC culture, 6 days; 10 μM SR10171 or 1 μM rosiglitazone
[2] = test system: non-adherent bone marrow cells; assay: Osteoclastogenesis assay from non-adherent bone marrow cells; format: cell-based; conditions: ex vivo; 10 μM SR10171 or 1 μM rosiglitazone; M-CSF and RANKL
[3] = test system: TCF/LIF/β-catenin complex; assay: Top-Flash luciferase reporter in U33/γ2 cells; format: cell-based; conditions: 72 h
[4] = Glucose tolerance test in DIO mice; format: in vivo, C57BL/6 mice; conditions: DIO animals, 25 mg/kg/d, 4 weeks
[5] = test system: osteocytes from femora cortical bone; assay: Gene expression in osteocytes freshly isolated from femora of treated animals; format: in vivo, C57BL/6 mice
PPARα = target: T1, PPARα (Homo sapiens, UniProt Q07869)
T1 sequence (Q07869 200-468 limits assumed): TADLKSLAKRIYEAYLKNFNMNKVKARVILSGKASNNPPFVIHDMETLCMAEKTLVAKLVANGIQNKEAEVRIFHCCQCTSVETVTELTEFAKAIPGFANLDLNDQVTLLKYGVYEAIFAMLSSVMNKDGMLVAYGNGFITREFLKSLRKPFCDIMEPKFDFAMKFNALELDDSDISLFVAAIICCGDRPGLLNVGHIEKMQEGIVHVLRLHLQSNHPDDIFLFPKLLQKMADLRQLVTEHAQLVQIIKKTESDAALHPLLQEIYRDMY

[6] = test system: trabecular and cortical bone of lean C57BL/6 mice; conditions: 15 mg/kg/d, 8 weeks; previously established, ref not given; cited from earlier work
[7] = test system: trabecular and cortical bone of lean C57BL/6 mice; assay: Lean mice experiment: bone mCT and histomorphometry; conditions: for mineral apposition rate (MAR) and bone formation rate (BFR): proximal tibia
[8] = test system: bone and marrow fat of DIO C57BL/6 mice; format: in vivo
[9] = Body weight of treated mice; format: in vivo, C57BL/6 mice
[10] = midshaft tibia, calcein labeling

- concentration at 4 days [1]: 1670 nM
- EC50 PPARα GAL-4 (PPARα): No activity
Structure (SMILES): CN(CCOc1ccc(CC2SC(=O)NC2=O)cc1)c1ccccn1 (racemic) [Rosiglitazone, (RS)-5-[4-(2-[methyl(pyridin-2-yl)amino]ethoxy)benzyl]thiazolidine-2,4-dione, reference compound]
- % inhibition S273pPPARγ (20 μM) (S273pPPARγ; 20 μM): 100%
- cortical tissue mineral density (TMD) (cortical bone): 954.5 ± 17.9 mg HA/cm^3
- phosphorylation of S112 of PPARγ (PPARγ): alters
- phosphorylation of S273 of PPARγ (PPARγ): block
- basal expression of Fabp4 and Adipoq (marrow MSCs): increased
- number of multi-nucleated TRAP-positive osteoclast-like cells [2]: increased
- β-catenin transcriptional activity (Top-Flash) [3]: decreased
- glucose tolerance [4]: normalized
- Dkk1 expression in osteocytes of treated animals [5]: increased
- Sost expression in osteocytes of treated animals [5]: unaffected
- decrease of bone mass [6]: 20%
- increase of adipocyte number ([7]; 15 mg/kg/d, 8 weeks): 5 fold
- trabecular bone mass ([7]; 15 mg/kg/d, 8 weeks): decreased
- mineral apposition rate (MAR) and bone formation rate (BFR) ([7]; 15 mg/kg/d, 8 weeks): attenuated

- concentration at 4 days [1]: 4010 nM
- retention levels in plasma, higher than rosiglitazone ([1]; animals treated for 4 days): 2.5 fold
Structure (SMILES): Cc1c(C)n(Cc2cccc(OC(C)(C)C(=O)O)c2)c2ccc(C(=O)N[C@@H](C)c3ccc(C(C)(C)C)cc3)cc12 [SR10171, (S)-2-(3-((5-((1-(4-(tert-butyl)phenyl)ethyl)carbamoyl)-2,3-dimethyl-1H-indol-1-yl)methyl)phenoxy)-2-methylpropanoic acid]
- S273 phosphorylation blocking activity, lower than rosiglitazone (S273pPPARγ; relative to rosiglitazone): 50%
- decrease in marrow fat volume vs no drug control ([8]; 25 mg/kg/d, 4 weeks, tibia): ~5 fold
- periosteal labeling, times larger than control [8, 10]: 9 fold
- cortical tissue mineral density (TMD) (cortical bone): 978.6 ± 10.4 mg HA/cm^3
- basal expression of Fabp4 and Adipoq (marrow MSCs): decreased
- number of multi-nucleated TRAP-positive osteoclast-like cells [2]: increased
- glucose tolerance [4]: normalized
- body weight ([9]; DIO mice maintained on HFD, 25 mg/kg/d, 4 weeks): decreased
- body weight ([9]; lean animals, 15 mg/kg/d, 8 weeks): no impact
- Dkk1 expression in osteocytes of treated animals [5]: decreased
- Sost expression in osteocytes of treated animals [5]: decreased
- Trabecular bone mass in proximal tibia, increase vs non-treated controls ([7]; 15 mg/kg/d, 8 weeks): 26%
- decrease of number of marrow adipocytes ([7]; 15 mg/kg/d, 8 weeks): 50%
- periosteal labeling, times larger than control [7, 10]: 1.5 fold
- mineral apposition rate (MAR) and bone formation rate (BFR) ([7]; 15 mg/kg/d, 8 weeks): increase
